# Values quoted from earlier work as cited in article PMC7941644, “Identification and Development of Therapeutics for COVID-19” (ArXiv, 2021).
# Tested on: SARS-CoV-2
compound,measurement,value
CCC(CC)COC(=O)[C@H](C)N[P@](=O)(OC[C@H]1O[C@@](C#N)(c2ccc3c(N)ncnn23)[C@H](O)[C@@H]1O)Oc1ccccc1 [remdesivir],inhibition of SARS-CoV-2 in vitro,"inhibit SARS-CoV-2, showing synergy with CQ in vitro"
